Patent publication US11406605B2, “Therapeutic compositions for treating pancreatic cancer” (Golden Biotechnology Corporation, priority 2017, dated 2022)
Values joined by “and” are separate entries in the source; they are usually repeats but may differ in a detail not shown here. Equal values may be shown once.

Tests used:
[1] = tested on: AsPC-1 subcutaneous xenograft; assay: Antitumor activity on AsPC-1 subcutaneous xenograft model; assay type: in vivo, nude mice
Experimental: The human pancreatic carcinoma cell line, AsPC-1, was cultured and the cells were injected subcutaneously in a flank of 60 mice. Three days later, the tumors could be felt in the mice. When tumors reached approximately 100-200 mg (mm^3), total of fifty one (51) tumor-bearing mice were randomly selected and sorted into one of six (6) groups. Vehicle (corn oil) treated mice were used as negative controls. Compound 1 combined with gemcitabine or paclitaxel were administered orally once a day and/or I.V. twice a week for four (4) weeks. Tumor measurements were recorded once a week using hand-held calipers and Visualsonic Vevo 2100 image system. Individual mouse weights were taken once a week during dosing. Mice were monitored daily for signs of toxicity and morbidity; any abnormal findings were recorded. The study was terminated four (4) weeks after initiation of drug administration.
D. Human Pancreatic Carcinoma Xenograft Models: • 1. To create the subcutaneous xenograft model, athymic female nude mice (4-6 weeks old) were subcutaneously inoculated with 1×10^7 AsPC-1 cells in 0.1 mL of serum-free DMEM medium containing 20% Matrigel (BD Biosciences, Bedford Mass.). • 2. Tumor-bearing animals were divided into the following 6 groups as table 1. • 3. The mice were monitored for activity and physical condition every day, and the determination of body weight and measurement tumor mass should be done once a week. Tumor image will be photed by digital camera and Visualsonic Vevo 2100 image system. Tumor mass is determined by caliper measurement in two perpendicular diameters of the implant and calculate using the formula […], where “a” stands for the long diameter and “b” is the short diameter.
a. Cell Injections: Mice were injected subcutaneously into the right lateral thorax with 1×10^7 viable human pancreatic carcinoma AsPC-1 Cells. […]
C. Tumor Measurements: The injection site of each animal was monitored one (1) time per week for signs of tumor growth. Throughout the study, the length (a) and width (b) of any tumors developed were measured in millimeters (mm) using vernier calipers, where a is the longer of the two (2) dimensions.
D. Evaluation of drug synergistic effect by tumor growth inhibition (TGI) and tumor inhibitory ratio (TIR): Volume of tumor growth inhibition (TGI) for each group was calculated according to the following formula: Tumor growth inhibition (%)=(1−[T−T0]/[C−C0])×100 • T and T0 are the mean tumor volumes on the end day and day 1 of treatment, respectively, for the experimental groups. […] The tumor inhibitory ratio was calculated by the formula: Tumor inhibitory ratio (%)=[(WControl−WTreated)/WControl]×100% • WTreated and WControl are the average tumor weights of the treated and control mice, respectively. […]

[2] = 50, 100, 200, 300, 450, and 600 mg-dose levels, given daily for 4 weeks; cited from earlier work
[3] = Body weight and hematological parameters in AsPC-1 xenograft study; assay type: in vivo
Experimental: A. Clinical Observations: Clinical observations of each study animal were performed and at least once daily (including weekends and holidays) for signs of morbidity, mortality and Test Article toxicity. Morbidity includes signs of illness such as, but not limited to, emaciation, dehydration, lethargy, hunched posture, unkempt appearance, dyspnea and urine or fecal staining. All abnormal findings will be recorded.
B. Animal Weights: Individual animal weights were taken one (1) time per week after/before dosing. Weights were recorded first prior to cell injections and continued for the duration of the study.
D. Hematological parameters: Cardiac blood was collected in EDTA for analyzing hematological parameters such as white blood cell count (WBC), red blood cell count (RBC), hemoglobin concentration (HB), hematocrit, mean corpuscular hemoglobin and concentration, platelet distribution width, platelet count, neutrophils, lymphocytes, monocytes, eosinophils. This was determined using hematology counter (Abbott Cell-Dyn 3700, IL).

[4] = tested on: orthotopic PANC-1 human pancreatic cancer xenograft; settings: 30, 60, and 90 mg/kg, cited from earlier work
[5] = tested on: AsPC-1 pancreatic cancer cells; assay: Cytotoxicity of test articles (TC50), MTT assay; assay type: cell-based, Human; settings: concentration at which cell viability was reduced to 50%
Experimental: The human pancreatic carcinoma cell lines, AsPC-1, PANC-1 and CaPan-2 were seeded 3×10^4 cells per well and cultured in a forty-eight (48) well cell culture dish (growth area 0.95 cm^2 per well). Sixteen (16) hours later, cells were treated Compound 1 alone or Compound 1 with a clinical chemotherapy drug, respectively. After 48 or 72 hours of the treatment, methylthiazoletetrazolium (MTT) assay (supplemental protocol-1) was performed to measure the effect of treatment on the viability of cells during proliferation.
B. Cell Preparation • 1. Remove and discard culture medium. • 2. Briefly rinse the cell layer with 5 mL HBSS. Gently shake and remove the HBSS. • 3. Add 5 mL trypsin-EDTA to 15 cm^2 polystyrene dishes. Incubate 5 mins at 37° C. in a humidified incubator with 95% air/5% CO2 atmosphere. • 4. Add 5 mL of complete growth medium (DMEM medium containing 10% FBS) and aspirate cells by gently pipetting. • 5. Count live cells using the trypan blue exclusion assay (supplemental protocol-2) with a hemocytometer. • 6. For in vitro study, cells will be seeded 3×10^4 cells per well and cultured in a forty-eight (48) wells cell culture dish for sixteen (16) hours until treatment. • 7. Incubate cultures at 37° C.
a. Cytotoxicity of test articles (TC50): AsPC-1 was seeded 3×10^4 cells (counted by Cell counter, LUNA™ Automated Cell Counter or hemocytometer) per well and cultured in a 48 wells cell culture dish. Cells were treated with single article from 400 or 800 μM with serial dilution to 0 μM. After 48 or 72 hours of treated, MTT assay was performed to measure the effect of treatment on the viability of AsPC-1 cells during proliferation. The absorbance at 595 nm was measured using a microplate reader (BioTEK, Synergy™ H1). Article sensitivity curves and TC50 values were calculated using GraphPad Prism 4.0 software.

[6] = tested on: metastatic pancreatic cancer; assay: Phase I study of Compound 1 with nab-paclitaxel and gemcitabine, preliminary results; assay type: in vivo, human; settings: 600 mg daily dosage of Compound 1 in combination with nab-paclitaxel and gemcitabine; after 3rd cycle (8 weeks treatment); individual patients
Description: This is a single-arm, open-label, multi-center Phase I study of Compound 1 in combination with nab-paclitaxel and gemcitabine in first line treatment naïve subjects with Stage IV metastatic pancreatic carcinoma.
The first part of the study will follow a 3+3 dose escalation design to determine the MTD or MFD (based on PK and capsules strength) of antroquinonol in combination with standard dose regimen of nab-paclitaxel and gemcitabine. Two dose levels of antroquinonol given TID are planned based on dose escalation data and capsules strengths. The final number of subjects will be based on the number of dose levels investigated and DLTs occurrence. Up to 12 subjects may be treated in this part of the study. A Safety Monitoring Committee (SMC) will be set up for this study to review DLTs and overall safety data and judge the relevance of events to the dose escalation scheme. […]
Treatments Administered: Compound 1 will be administered in 200- to 300-mg doses (planned dose levels), TID, given in 100 mg capsules (resulting a daily dosage of 600 mg to 900 mg). Additional dose levels may be investigated as determined by the study SMC. […]
Efficacy Assessments: The RECIST 1.1 criteria will be used to assess subject response to treatment by determining ORR, DoR, DCR, PFS, PFS 3 months, and PFS 6 months. […] The OS, OS 6 months, and OS 12 months will also be evaluated.

[7] = tested on: advanced pancreatic cancer; settings: patients with advanced pancreatic cancer; cited from earlier work
[8] = tested on: advanced pancreatic cancer; settings: people with advanced pancreatic cancer; cited from earlier work
[9] = tested on: metastatic pancreatic adenocarcinoma; settings: previously untreated metastatic pancreatic adenocarcinoma; cited from earlier work
[10] = AsPC-1 xenograft, 28 days treatment
[11] = cardiac blood, AsPC-1 xenograft study, mean ± SEM, n = 3
[12] = Homo sapiens, ASPC1, AsPC-1 cells, 48 hrs
[13] = Homo sapiens, ASPC1, AsPC-1 cells, 72 hrs

For `COC1=C(OC)C(O)C(C/C=C(\C)CC/C=C(\C)CCC=C(C)C)C(C)C1=O` (centres unmarked) [Compound 1, 4-hydroxy-2,3-dimethoxy-6-methyl-5-(3,7,11-trimethyldodeca-2,6,10-trienyl)cyclohex-2-enone], the “Response, TCR (tumor volume of treatment-to-control ratios)” value [1, 10] was 0.55, the “TGI (volume of tumor growth inhibition)” value [1, 10] was 51% and the “TIR (tumor weight inhibitory ratio)” value [1, 10] was 45%. For the same molecule, the Tumor weight of excised tumors at the time of sacrifice ([1]; after 28 days of treatments, A 120 mg/kg oral daily, G/P IV twice weekly, mean ± SEM) was 0.21 ± 0.07 g, the safety and tolerability [2] was “generally safe and well tolerated” and the “number of blood cells” value ([3]; AsPC-1 xenograft) was “did not affect number of blood cells except for blood glucose”. For the same molecule, the HCT [3, 11] was 50.3 ± 1.8%, the HGB [3, 11] was 15.6 ± 1.1 g/dL and the MCH [3, 11] was 15.3 ± 0.3 pg. For the same molecule, the MCV [3, 11] was 53.6 ± 2.3 fL, the RBC [3, 11] was 9.93 ± 1.34 10^12/L and the WBC [3, 11] was 7.34 ± 0.71 10^9/L. The “tolerability, body weight loss” value ([4]; tumor bearing mice) was “tolerated well”, the “anti-tumor activity (mean tumor volumes and tumor weights vs vehicle control)” value ([4]; measured 10 days after drug treatment) was “effective anti-tumor activity” and the CC50 [5, 12] was 58.1 µM. For the same molecule, the CC50 [5, 13] was 24 µM, the “patient tumor size after treatment” value [6] was 84 mm and 39 mm and the “patient tumor size reduced” value [6] was 7.6% and 22%.
For `O=c1[nH]cc(F)c(=O)[nH]1` [Compound 5-FU, 5-Fluorouracil], the CC50 [5, 12] was over 800 µM and the CC50 [5, 13] was over 800 µM.
`C#Cc1cccc(Nc2ncnc3cc(OCCOC)c(OCCOC)cc23)c1` [Erlotinib] gave a CC50 [5, 12] of over 800 µM and a CC50 [5, 13] of over 800 µM.
In the case of `Nc1ccn([C@@H]2O[C@H](CO)[C@@H](O)C2(F)F)c(=O)n1` [Gemcitabine], the “Median progression-free survival (PFS)” value [7] is given as 3.3 months, the “median overall survival (OS)” value [7] is given as 6.8 months and the “improvement in median survival duration” value [8] is given as 5 week. The CC50 [5, 12] was over 800 µM, the CC50 [5, 13] was over 800 µM and the “Median PFS” value [9] was 3.7 months. The “median OS” value [9] was 6.7 months.
`CCc1c2c(nc3ccc(OC(=O)N4CCC(N5CCCCC5)CC4)cc13)-c1cc3c(c(=O)n1C2)COC(=O)[C@]3(O)CC` [Irinotecan] showed a CC50 [5, 12] of 221 µM and a CC50 [5, 13] of 68.3 µM.
Molecule `O=C1[O][Pt]2([NH][C@@H]3CCCC[C@H]3[NH]2)[O]C1=O` [Oxaliplatin] has a CC50 ([5]; AsPC-1 cells, 48 hrs) of 655 µM and a CC50 ([5]; AsPC-1 cells, 72 hrs) of 57.9 µM.
Work on `CC(=O)O[C@H]1C(=O)[C@@]2(C)[C@H]([C@H](OC(=O)c3ccccc3)[C@]3(O)C[C@H](OC(=O)[C@H](O)[C@@H](NC(=O)c4ccccc4)c4ccccc4)C(C)=C1C3(C)C)[C@]1(OC(C)=O)CO[C@@H]1C[C@@H]2O` [Paclitaxel] yielded a CC50 [5, 12] of 7.05 µM and a CC50 [5, 13] of 3.72 µM.
